This note sets out measurements from US11254654B2, “Heterochromatin gene repression inhibitors” (The University of North Carolina at Chapel Hill, priority 2017, dated 2022).

What all share (format): cell-based, mouse
For one series, the system named is CiA:Oct4 N118/N163 cells. Description: Compound 2 activity and fluorescence microscopy. The conditions noted are these: 7.5 μM, 48 hrs. As for the experimental part: Day 0, CiA:Oct4 N118/N163 cells were plated into 96 well plate and 10 or 15 cm plate formats. Day 1, media was aspirated and replaced with fresh ES media +/−7.5 μM compound 2+/−6 nM rapamycin. Day 2, media was aspirated and replaced with fresh ES media +/−7.5 μM compound 2+/−6 nM rapamycin. Day 3, media was removed from 96 well plate and cells were washed with PBS prior to trypsinization and flow cytometry analysis as described above to confirm functional inhibition of compound 2.
Prior to imaging, ES media was removed from 10-15 cm plates and replaced with PBS to decrease background fluorescence. Cells were imaged using an Olympus IX71 microscope analyzed using Cellsens software. Representative images were taken in 2 random plate locations for each of the four conditions. Image levels were normalized using Adobe Photoshop.
In order to confirm that compound 2 was inhibiting H3K9me3 deposition, CiA:Oct4 N118/N163 cells were grown for 48-hours with rapamycin mediating HP1 recruitment, +/−compound 2 (FIG. 11G). Representative brightfield and fluorescence images were taken for the four sample types ((−) rapamycin/(−) compound 2, (−) rapamycin/(+) compound 2, (+) rapamycin/(−) compound 2, (+) rapamycin/(+) compound 2). […] Subsequently, all samples were analyzed by flow cytometry to confirm the inhibitory effects of compound 2 on HP1-mediated gene repression. […]

The next series deals with H3K9me3. In words: ChIP-qPCR at CiA:Oct4 locus, TSS+489. The conditions noted are these: 48 hr, + 6 nM rapamycin, 489 bp downstream of TSS. As for the experimental part: 10-15 cm plates of cells grown to confluence were washed with PBS and trypsinized 10 min with 0.25% trypsin-EDTA. ES media was added to quench the trypsin, and cells were resuspended prior to counting using a Countess II Automated Cell Counter (ThermoFisher). Cell suspension was centrifuged at 300×g for 5 min. Cell pellet was washed with PBS and pelleted at 300×g for 5 min. Cells were resuspended and crosslinked with 1% formaldehyde for 10 min. 2.5 M glycine (0.125 M final) was added and samples were put on ice to stop the crosslinking. […]
Enrichment of ChIP DNA was determined by qPCR. […] Samples were analyzed using the comparative ΔΔCt method and normalized against an intergenic control region (Hathaway et al., 2012; Livak & Schmittgen, 2001). […]
Chromatin immunoprecipitation (ChIP) was used to determine the levels of H3K9me3 at the Oct4 locus upon treatment with compound 2. […] For this reason, the levels of H3K9me3 were analyzed at 489 bp downstream of the TSS in all four sample conditions. qPCR was used to amplify this region in addition to an intergenic control region. […]
(§1) Referring to FIG. 11A, CiA:Oct4 csHP1α recruiting cells were incubated with 7.5 μM compound 2+/−6 nM rapamycin for 48 hrs and representative brightfield and GFP fluorescence images were acquired at 20×. […] GFP expression was analyzed by flow cytometry. […]

The next series relates to G9a. Description: ChIP-qPCR at CiA:Oct4 locus, TSS+489. The conditions noted are these: four treatment conditions. As for the experimental part:
(§2) 10-15 cm plates of cells grown to confluence were washed with PBS and trypsinized 10 min with 0.25% trypsin-EDTA. ES media was added to quench the trypsin, and cells were resuspended prior to counting using a Countess II Automated Cell Counter (ThermoFisher). Cell suspension was centrifuged at 300×g for 5 min. Cell pellet was washed with PBS and pelleted at 300×g for 5 min. Cells were resuspended and crosslinked with 1% formaldehyde for 10 min. 2.5 M glycine (0.125 M final) was added and samples were put on ice to stop the crosslinking. Nuclei were isolated by incubating cells on ice for 10 min in CiA NP Rinse 1 (50 mM HEPES pH 8.0, 140 mM NaCl, 1 mM EDTA, 10% glycerol, 0.5% NP40, 0.25% Triton X100). Nuclei were pelleted at 1200×g for 5 min at 4° C. and resuspended in CiA NP Rinse 2 (10 mM Tris pH 8.0, 1 mM EDTA, 0.5 mM EGTA, 200 mM NaCl). Nuclei were pelleted at 1200×g for 5 min at 4° C. Nuclei were resuspended in shearing buffer (0.1% SDS, 1 mM EDTA pH 8, 10 mM Tris HCl, pH 8) and sonicated for 5 min using a Covaris sonicator (Hathaway et al., 2012). Input DNA and ChIP DNA was isolated according to Active Motif High Sensitivity ChIP-IT kit procedure. ChIP for H3K9me3 used Abcam (ab8898) primary antibody.
(§3) Enrichment of ChIP DNA was determined by qPCR. 384-well PCR plates contained 2 μL of template DNA and 8 μL of reaction mix of primers and FastStart Universal SYBR Green 2× master mix (Roche). Samples were run on a ViiA7 Real-Time PCR system (Applied Biosystems) (Pattenden et al., 2016). Plates were setup in technical duplicate or triplicate. Samples were analyzed using the comparative ΔΔCt method and normalized against an intergenic control region (Hathaway et al., 2012; Livak & Schmittgen, 2001). Experiment was performed in a minimum biological triplicate and data is representative of sample average. T-test were used to determine significant p-values.
(§4) To further characterize the effects of compound 2 on the HP1-heterochromatin pathway, perturbations in the levels of HP1γ, H3K4me3, and G9a at the CiA:Oct4 locus were assayed for using ChIP followed by […] analysis. Enrichment levels were determined at 489 bp downstream of the TSS and normalized to a house-keeping gene, intracisternal A-type particles (IAP). As shown previously, HP1γ functions similarly to HP1α in our inhibition assay. […] No change in H3K4me3 levels were detected upon compound 2 treatment despite the decrease in H3K9me3 (FIG. 11E). […]
as §1
(In general: In qPCR the cycle at which signal appears reflects the starting amount.)

The test system of another series is H3K4me3. In words: ChIP-qPCR at CiA:Oct4 locus, TSS+489. The conditions noted are these: 48 hr treatment, +/- rapamycin. As for the experimental part:
as §2, §3, §4, §1

Another series relates to HP1γ. In words: ChIP-qPCR at CiA:Oct4 locus, TSS+489. As for the experimental part:
as §2, §3, §4, §1

In series [1] the test system is HP1-mediated gene repression. Description: UNC2524 structure-activity relationship assay, CiA:Oct4 N118/N163 flow cytometry. Conditions: 10 μM, 48 hrs. As for the experimental part:
Day 0, CiA:Oct4 N118/163 cells were grown in ES media and seeded at a density of 10,000 cells per well (100,000 cells/mL) into gelatin coated 96 well plates. Day 1, media was aspirated and replaced with 100 μL fresh ES media containing +/−6 nM rapamycin and 10 μM of each compound derived for SAR. Day 2, culture media was aspirated away and […] fresh ES media containing +/−6 nM rapamycin and 10 μM of compounds were added as on Day 1. Day 3, the media was aspirated out of the wells and the cells were washed with PBS and trypsinized using 0.25% trypsin-EDTA. Trypsin was quenched with serum. Cells were resuspended by pipetting to prepare the plates for flow cytometry analysis as described above.
Compounds 2-8 were chemically synthesized from UNC2524 (compound 1) (FIG. 10A). To ascertain the biological activity of these chemical derivatives, CiA:Oct4 N118/N163 cells were used. Cells were treated with rapamycin plus compounds 2 and 5-8 for 48-hours prior to analysis by flow cytometry. Compound activity was confirmed by an increase in % inhibition compared to control samples. Compounds 5 and 6 added a pentenal chain and BOC group to the piperidine ring while compound 7 substituted a hexyl chain for the pyrrolidine. […] Further, it was identified that the 7-methoxy side chain was amenable to modification with a benzene ring in compound 8, while preserving most of the biological activity (˜51%).
Referring to FIG. 10A, a series of compounds derived from compound 1 (UNC2524) were designed to optimize compound activity and determine amenability of compounds for affinity purification methods. Referring to FIG. 10B, CiA:Oct4 N118/N163 cells were treated with SAR compounds at 10 μM for 48 hrs+/−6 nM rapamycin. Flow cytometry analysis was used to determine the % GFP (+) population. […] (p≤0.05*, 0.01**).
(In general: Flow cytometry measures light scatter and fluorescence of single cells or particles in a stream.)

SMILES strings stand for the structures. Where a name gives a salt, the structure may show the parent alone.

In the case of `COc1cc2nc(N3CCCC3)nc(N[C@@H]3CCCNC3)c2cc1OC` [compound 2, (R)-6,7-Dimethoxy-N-(Piperidin-3-yl)-2-(Pyrrolidin-1-yl)Quinazolin-4-Amine Trifluoroacetic Acid Salt], the “ES cell differentiation and colony morphology” value in the series on CiA:Oct4 N118/N163 cells (+/- 6 nM rapamycin) is “did not result in gross cell differentiation or effect colony morphology”. Moreover, in the series with CiA:Oct4 N118/N163 cells (with and without rapamycin), the “GFP expression by flow cytometry compared to untreated controls” value is on record as “increased GFP expression”. Moreover, the “Decrease of H3K9me3 enrichment compared to plus rapamycin control” value with H3K9me3 was around 9 fold. Also, the “Change in G9a levels” value with G9a was “No significant changes”. In addition, the “Change in H3K4me3 levels” value in the series on H3K4me3 is on record as “No change”. In addition, the “Increase of HP1γ levels compared to controls” value in the series with HP1γ (compound alone, no HP1 recruitment) came to 46%. Moreover, the “Decrease of HP1γ levels compared to HP1 recruitment alone” value in the series with HP1γ (with HP1 recruitment (rapamycin)) came to 37%. In addition, in series [1] (+ 6 nM rapamycin), the “% inhibition compared with parent compound 1” value (“% inhibition” below) was “increase in activity over the parent”.

With `C=CCCCN1CCC[C@H](Nc2nc(N3CCCC3)nc3cc(OC)c(OC)cc23)C1` [compound 5, (S)-6,7-Dimethoxy-N-(1-(Pent-4-en-1-yl)Piperidin-3-yl)-2-(Pyrrolidin-1-yl)Quinazolin-4-Amine, Trifluoroacetic Acid Salt], the “% inhibition” value in series [1] (+ 6 nM rapamycin) is “decrease in inhibition”.

In the case of `COc1cc2nc(N3CCCC3)nc(N[C@@H]3CCCN(C(=O)OC(C)(C)C)C3)c2cc1OC` [compound 6, Tert-Butyl (R)-3-((6,7-Dimethoxy-2-(Pyrrolidin-1-yl)Quinazolin-4-yl)Amino)Piperidine-1-Carboxylate], the “% inhibition” value in series [1] (+ 6 nM rapamycin) is on record as “decrease in inhibition”.

With `CCCCCCNc1nc(N[C@H]2CCCNC2)c2cc(OC)c(OC)cc2n1` [compound 7, (S)—N^2-Hexyl-6,7-Dimethoxy-N^4-(Piperidin-3-yl)Quinazoline-2,4-Diamine], in series [1], the “Toxicity in SAR assay” value was “toxicity and low cell counts”. For the same compound, in series [1] (+ 6 nM rapamycin), the “% inhibition” value was “decrease in inhibition”.

For `COc1cc2c(N[C@H]3CCCNC3)nc(N3CCCC3)nc2cc1OCCCN1CCCCC1` [compound 8, (S)-6-Methoxy-7-(3-(Piperidin-1-yl)Propoxy)-N-(Piperidin-3-yl)-2-(Pyrrolidin-1-yl)Quinazolin-4-Amine Trifluoroacetic Acid Salt], the Biological activity preserved in series [1] (+ 6 nM rapamycin) is given as around 51%.
